{"source": "PubChem BioAssay (NCI)", "test_in_all_cases": "NCI-60 cell line screen, 48 h", "key": {"[1]": {"system": "786-0 renal"}, "[2]": {"system": "A498 renal"}, "[3]": {"system": "A549 NSCLC"}, "[4]": {"system": "ACHN renal"}, "[5]": {"system": "BT-549 breast"}, "[6]": {"system": "CCRF-CEM leukemia"}, "[7]": {"system": "DU-145 prostate"}, "[8]": {"system": "HCC-2998 colon"}, "[9]": {"system": "HCT-116 colon"}, "[10]": {"system": "HCT-15 colon"}, "[11]": {"system": "HL-60(TB) leukemia"}, "[12]": {"system": "HOP-62 NSCLC"}, "[13]": {"system": "HT29 colon"}, "[14]": {"system": "IGROV1 ovarian"}, "[15]": {"system": "K-562 leukemia"}, "[16]": {"system": "KM12 colon"}, "[17]": {"system": "LOX IMVI melanoma"}, "[18]": {"system": "M14 melanoma"}, "[19]": {"system": "MALME-3M melanoma"}, "[20]": {"system": "MCF7 breast"}, "[21]": {"system": "MDA-MB-231 breast"}, "[22]": {"system": "NCI-H226 lung"}, "[23]": {"system": "NCI-H23 lung"}, "[24]": {"system": "NCI-H460 lung"}, "[25]": {"system": "NCI-H522 lung"}, "[26]": {"system": "NCI/ADR-RES ovarian"}, "[27]": {"system": "OVCAR-3 ovarian"}, "[28]": {"system": "OVCAR-4 ovarian"}, "[29]": {"system": "OVCAR-5 ovarian"}, "[30]": {"system": "OVCAR-8 ovarian"}, "[31]": {"system": "PC-3 prostate"}, "[32]": {"system": "RPMI-8226 leukemia"}, "[33]": {"system": "RXF 393 renal"}, "[34]": {"system": "SF-268 CNS"}, "[35]": {"system": "SF-295 CNS"}, "[36]": {"system": "SF-539 CNS"}, "[37]": {"system": "SK-MEL-2 melanoma"}, "[38]": {"system": "SK-MEL-28 melanoma"}, "[39]": {"system": "SK-MEL-5 melanoma"}, "[40]": {"system": "SK-OV-3 ovarian"}, "[41]": {"system": "SN12C renal"}, "[42]": {"system": "SNB-19 CNS"}, "[43]": {"system": "SNB-75 CNS"}, "[44]": {"system": "SR leukemia"}, "[45]": {"system": "SW-620 colon"}, "[46]": {"system": "T-47D breast"}, "[47]": {"system": "TK-10 renal"}, "[48]": {"system": "U251 CNS"}, "[49]": {"system": "UACC-257 melanoma"}, "[50]": {"system": "UACC-62 melanoma"}}, "note": "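How tested: cells in 96-well plates exposed to compound for 48 hours at five concentrations. GI50 marks 50% less growth. TGI is the concentration that stops growth completely.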", "data": [{"smiles": "COc1cc(OC)c2sc(-c3ccc(-n4cncc4-c4ccc(OC)c(OC)c4)cc3)nc2c1", "values": [{"measurement": "GI50", "setting": "[1]", "value": "> 100", "unit": "µM"}, {"measurement": "TGI", "setting": "[1]", "value": "> 100", "unit": "µM"}, {"measurement": "GI50", "setting": "[2]", "value": 2.15, "unit": "µM"}, {"measurement": "TGI", "setting": "[2]", "value": "> 100", "unit": "µM"}, {"measurement": "GI50", "setting": "[3]", "value": 41.8, "unit": "µM"}, {"measurement": "TGI", "setting": "[3]", "value": "> 100", "unit": "µM"}, {"measurement": "GI50", "setting": "[4]", "value": "> 100", "unit": "µM"}, {"measurement": "TGI", "setting": "[4]", "value": "> 100", "unit": "µM"}, {"measurement": "GI50", "setting": "[5]", "value": 9.12, "unit": "µM"}, {"measurement": "TGI", "setting": "[5]", "value": "> 100", "unit": "µM"}, {"measurement": "GI50", "setting": "[6]", "value": "> 100", "unit": "µM"}, {"measurement": "TGI", "setting": "[6]", "value": "> 100", "unit": "µM"}, {"measurement": "GI50", "setting": "[7]", "value": 27.9, "unit": "µM"}, {"measurement": "TGI", "setting": "[7]", "value": "> 100", "unit": "µM"}, {"measurement": "GI50", "setting": "[8]", "value": "> 100", "unit": "µM"}, {"measurement": "TGI", "setting": "[8]", "value": "> 100", "unit": "µM"}, {"measurement": "GI50", "setting": "[9]", "value": 5.48, "unit": "µM"}, {"measurement": "TGI", "setting": "[9]", "value": "> 100", "unit": "µM"}, {"measurement": "GI50", "setting": "[10]", "value": "> 100", "unit": "µM"}, {"measurement": "TGI", "setting": "[10]", "value": "> 100", "unit": "µM"}, {"measurement": "GI50", "setting": "[11]", "value": 3.09, "unit": "µM"}, {"measurement": "TGI", "setting": "[11]", "value": "> 100", "unit": "µM"}, {"measurement": "GI50", "setting": "[12]", "value": 35.5, "unit": "µM"}, {"measurement": "TGI", "setting": "[12]", "value": "> 100", "unit": "µM"}, {"measurement": "GI50", "setting": "[13]", "value": 7.13, "unit": "µM"}, {"measurement": "TGI", "setting": "[13]", "value": "> 100", "unit": "µM"}, {"measurement": "GI50", "setting": "[14]", "value": 56.1, "unit": "µM"}, {"measurement": "TGI", "setting": "[14]", "value": "> 100", "unit": "µM"}, {"measurement": "GI50", "setting": "[15]", "value": 5.88, "unit": "µM"}, {"measurement": "TGI", "setting": "[15]", "value": "> 100", "unit": "µM"}, {"measurement": "GI50", "setting": "[16]", "value": 6.8, "unit": "µM"}, {"measurement": "TGI", "setting": "[16]", "value": "> 100", "unit": "µM"}, {"measurement": "GI50", "setting": "[17]", "value": "> 100", "unit": "µM"}, {"measurement": "TGI", "setting": "[17]", "value": "> 100", "unit": "µM"}, {"measurement": "GI50", "setting": "[18]", "value": "> 100", "unit": "µM"}, {"measurement": "TGI", "setting": "[18]", "value": "> 100", "unit": "µM"}, {"measurement": "GI50", "setting": "[19]", "value": 59.9, "unit": "µM"}, {"measurement": "TGI", "setting": "[19]", "value": "> 100", "unit": "µM"}, {"measurement": "GI50", "setting": "[20]", "value": 5.37, "unit": "µM"}, {"measurement": "TGI", "setting": "[20]", "value": "> 100", "unit": "µM"}, {"measurement": "GI50", "setting": "[21]", "value": 28.4, "unit": "µM"}, {"measurement": "TGI", "setting": "[21]", "value": "> 100", "unit": "µM"}, {"measurement": "GI50", "setting": "[22]", "value": 6.44, "unit": "µM"}, {"measurement": "TGI", "setting": "[22]", "value": "> 100", "unit": "µM"}, {"measurement": "GI50", "setting": "[23]", "value": "> 100", "unit": "µM"}, {"measurement": "TGI", "setting": "[23]", "value": "> 100", "unit": "µM"}, {"measurement": "GI50", "setting": "[24]", "value": 6.06, "unit": "µM"}, {"measurement": "TGI", "setting": "[24]", "value": "> 100", "unit": "µM"}, {"measurement": "GI50", "setting": "[25]", "value": 5.27, "unit": "µM"}, {"measurement": "TGI", "setting": "[25]", "value": 76.9, "unit": "µM"}, {"measurement": "GI50", "setting": "[26]", "value": "> 100", "unit": "µM"}, {"measurement": "TGI", "setting": "[26]", "value": "> 100", "unit": "µM"}, {"measurement": "GI50", "setting": "[27]", "value": 3.85, "unit": "µM"}, {"measurement": "TGI", "setting": "[27]", "value": 35.9, "unit": "µM"}, {"measurement": "GI50", "setting": "[28]", "value": 4.21, "unit": "µM"}, {"measurement": "TGI", "setting": "[28]", "value": "> 100", "unit": "µM"}, {"measurement": "GI50", "setting": "[29]", "value": "> 100", "unit": "µM"}, {"measurement": "TGI", "setting": "[29]", "value": "> 100", "unit": "µM"}, {"measurement": "GI50", "setting": "[30]", "value": 21.2, "unit": "µM"}, {"measurement": "TGI", "setting": "[30]", "value": "> 100", "unit": "µM"}, {"measurement": "GI50", "setting": "[31]", "value": 3.66, "unit": "µM"}, {"measurement": "TGI", "setting": "[31]", "value": "> 100", "unit": "µM"}, {"measurement": "GI50", "setting": "[32]", "value": "> 100", "unit": "µM"}, {"measurement": "TGI", "setting": "[32]", "value": "> 100", "unit": "µM"}, {"measurement": "GI50", "setting": "[33]", "value": 3.55, "unit": "µM"}, {"measurement": "TGI", "setting": "[33]", "value": "> 100", "unit": "µM"}, {"measurement": "GI50", "setting": "[34]", "value": 9.96, "unit": "µM"}, {"measurement": "TGI", "setting": "[34]", "value": "> 100", "unit": "µM"}, {"measurement": "GI50", "setting": "[35]", "value": 7, "unit": "µM"}, {"measurement": "TGI", "setting": "[35]", "value": "> 100", "unit": "µM"}, {"measurement": "GI50", "setting": "[36]", "value": "> 100", "unit": "µM"}, {"measurement": "TGI", "setting": "[36]", "value": "> 100", "unit": "µM"}, {"measurement": "GI50", "setting": "[37]", "value": 41.4, "unit": "µM"}, {"measurement": "TGI", "setting": "[37]", "value": "> 100", "unit": "µM"}, {"measurement": "GI50", "setting": "[38]", "value": "> 100", "unit": "µM"}, {"measurement": "TGI", "setting": "[38]", "value": "> 100", "unit": "µM"}, {"measurement": "GI50", "setting": "[39]", "value": 3.61, "unit": "µM"}, {"measurement": "TGI", "setting": "[39]", "value": "> 100", "unit": "µM"}, {"measurement": "GI50", "setting": "[40]", "value": "> 100", "unit": "µM"}, {"measurement": "TGI", "setting": "[40]", "value": "> 100", "unit": "µM"}, {"measurement": "GI50", "setting": "[41]", "value": "> 100", "unit": "µM"}, {"measurement": "TGI", "setting": "[41]", "value": "> 100", "unit": "µM"}, {"measurement": "GI50", "setting": "[42]", "value": "> 100", "unit": "µM"}, {"measurement": "TGI", "setting": "[42]", "value": "> 100", "unit": "µM"}, {"measurement": "GI50", "setting": "[43]", "value": 7.21, "unit": "µM"}, {"measurement": "TGI", "setting": "[43]", "value": 46, "unit": "µM"}, {"measurement": "GI50", "setting": "[44]", "value": 3.03, "unit": "µM"}, {"measurement": "TGI", "setting": "[44]", "value": "> 100", "unit": "µM"}, {"measurement": "GI50", "setting": "[45]", "value": "> 100", "unit": "µM"}, {"measurement": "TGI", "setting": "[45]", "value": "> 100", "unit": "µM"}, {"measurement": "GI50", "setting": "[46]", "value": 3.78, "unit": "µM"}, {"measurement": "TGI", "setting": "[46]", "value": "> 100", "unit": "µM"}, {"measurement": "GI50", "setting": "[47]", "value": 31.7, "unit": "µM"}, {"measurement": "TGI", "setting": "[47]", "value": "> 100", "unit": "µM"}, {"measurement": "GI50", "setting": "[48]", "value": 9.19, "unit": "µM"}, {"measurement": "TGI", "setting": "[48]", "value": "> 100", "unit": "µM"}, {"measurement": "GI50", "setting": "[49]", "value": "> 100", "unit": "µM"}, {"measurement": "TGI", "setting": "[49]", "value": "> 100", "unit": "µM"}, {"measurement": "GI50", "setting": "[50]", "value": 8.14, "unit": "µM"}, {"measurement": "TGI", "setting": "[50]", "value": "> 100", "unit": "µM"}]}]}
